Test results from ChEMBL document CHEMBL1821669, “Cyclic depsipeptides, grassypeptolides D and E and Ibu-epidemethoxylyngbyastatin 3, from a Red Sea Leptolyngbya cyanobacterium” (J Nat Prod, 2011).
Numbered stars: 1 amine (or outer) side, 2 acyl side, 3 side chain; on linkers, the order of the positions; unused ones are H or OH. Square brackets hold non-standard residues; d marks the D form. Peptide text beside a SMILES is read from it. X2 = CCC[C@@H](N[*:1])[C@H](C)C(=O)O[C@H](C(=O)[*:2])[C@@H](C)CC; X3 = CC[C@H](C)[C@H](OC(=O)[C@@H](C)[C@@H](CC)N[*:1])C(=O)[*:2]; dAbuψ(thiazoline)Cys = CC[C@@H](N[*:1])C1=N[C@H](C(=O)[*:2])CS1; X4 = CN([C@@H](Cc1ccccc1)C1=N[C@H](C(=O)[*:2])CS1)[*:1]; dβ3hAla(2R-Me) = C[C@@H](N[*:1])[C@@H](C)C(=O)[*:2]; X1 = C[C@H](N[*:1])C(=O)C(C)(C)C(=O)[*:2]; d(aThr) = C[C@@H](O)[C@@H](N)C(=O)O; NMeF = CN[C@@H](Cc1ccccc1)C(=O)O; PhLac = O=C(O)[C@@H](O)Cc1ccccc1; NMeL = CN[C@@H](CC(C)C)C(=O)O; dNMeL = CN[C@H](CC(C)C)C(=O)O; NMeV = CN[C@H](C(=O)O)C(C)C; NMeA = CN[C@@H](C)C(=O)O

Legend:
[1] = Cytotoxicity against mouse Neuro2a cells after 48 hrs by MTT assay; assay type: functional, cell-based; conditions: N2a
HeLa = test: Cytotoxicity against human HeLa cells after 48 hrs by MTT assay; assay type: functional, cell-based

Row | Compound | IC50 [1] | IC50 (HeLa)
1 | CCC[C@H]1NC(=O)[C@H](C)N(C)C(=O)C(C)(C)C(=O)[C@H](C)NC(=O)[C@H](Cc2ccccc2)N(C)C(=O)[C@H](C(C)C)N(C)C(=O)CNC(=O)[C@H](CC(C)C)N(C)C(=O)CNC(=O)[C@H]([C@@H](C)CC)OC(=O)[C@H]1C (cyclo(G[NMeL]G[NMeV][NMeF][X1][NMeA][X2])) | > 10000 nM | 
2 | CC[C@H]1NC(=O)[C@@]2(C)CSC(=N2)[C@H](Cc2ccccc2)N(C)C(=O)[C@@H]2CCCN2C(=O)[C@H](C(C)C)N(C)C(=O)[C@H](Cc2ccccc2)OC(=O)[C@H](C)[C@@H](C)NC(=O)[C@H]([C@@H](C)O)NC(=O)[C@H](CC(C)C)N(C)C(=O)[C@@H]2CSC1=N2 [GRASSYPEPTOLIDE E] | 407 nM | 192 nM
3 | CC[C@H]1NC(=O)[C@@H]2CSC(=N2)[C@H](Cc2ccccc2)N(C)C(=O)[C@@H]2CCCN2C(=O)[C@H](C(C)C)N(C)C(=O)[C@H](Cc2ccccc2)OC(=O)[C@H](C)[C@@H](C)NC(=O)[C@@H]([C@@H](C)O)NC(=O)[C@@H](CC(C)C)N(C)C(=O)[C@@H]2CSC1=N2 [GRASSYPEPTOLIDE C] (cyclo([NMeV]P[X4][dAbuψ(thiazoline)Cys][dNMeL][d(aThr)][dβ3hAla(2R-Me)][PhLac])) |  | 45 nM
4 | CC[C@H]1NC(=O)[C@@]2(C)CSC(=N2)[C@H](Cc2ccccc2)N(C)C(=O)[C@@H]2CCCN2C(=O)[C@H](C(C)C)N(C)C(=O)[C@H](Cc2ccccc2)OC(=O)[C@H](C)[C@@H](C)NC(=O)[C@@H]([C@@H](C)O)NC(=O)[C@@H](CC(C)C)N(C)C(=O)[C@@H]2CSC1=N2 [GRASSYPEPTOLIDE D] | 599 nM | 335 nM
5 | CC[C@H](C)[C@@H]1OC(=O)[C@@H](C)[C@@H](CC)NC(=O)[C@H](C)N(C)C(=O)C(C)(C)C(=O)[C@H](C)NC(=O)[C@H](Cc2ccccc2)N(C)C(=O)[C@H](C(C)C)N(C)C(=O)CNC(=O)[C@H](CC(C)C)N(C)C(=O)CNC1=O [DOLASTATIN 12] (cyclo(G[NMeL]G[NMeV][NMeF][X1][NMeA][X3])) | > 1000 nM | 
